Assay results as given in patent publication US8198322B2, “Apoptotic and anti-tumor activities of metallo-salens” (Board of Regents, The University of Texas System, priority 2008, dated 2012).
Entries after “also recorded” stand apart in the source; their conditions may differ.

Test system: MCF-7 cells
Assay: Cell viability assay (MTT, DIC microscopy) at 20 μM
Type: cell-based, human
Parameters: key to Summary of cell viability activities (active/inactive): Y and N indicates active and inactive compounds respectively; Y and N indicates active and inactive compounds respectively
Settings: for effect on cell viability (in words): MCF-7, 20 μM, up to 96 hrs; for Summary of cell viability activities (active/inactive): MCF-7 cells, 20 μM, 24-96 hrs, MTT
Protocol: (A-F): MCF-7 cells were treated with 20 μM metallo-salens and incubated for varying time periods (24-96 hrs). Viable cells were quantified using MTT assay. The percent viable cells (relative to control, treated with equivalent amount of DMSO) were plotted as a function of time for each compound. This experiment was repeated twice with 8 replicate treatments each time. Bars indicates standard errors of mean (SEM). Curves 1-42 in FIGS. 2A-2F, represent the viability curves for compounds 1-42 respectively. (A′-F′) DIC images of the corresponding MCF-7 cells that were treated with DMSO (control panel), or with 20 μM Mn(III)- and Fe(III)-salen complexes for 72 hrs showing the visual effects on cellular morphology and growth/death.
Cell viability assay: Approximately 10,000 MCF-7 cells were seeded into each well of a 96 well micro titer plate and incubated 24 hrs in presence of 150 μL DMEM. An additional 50 μL DMEM containing required amount of each metallo-salen to obtain 20 μM final concentrations (in 200 μL final volume) in 8 replicate wells were added. Control wells were treated with equivalent amount of dimethylsulfoxide (DMSO). The viability of the cells was assayed at 24, 48, 72 and 96 hrs post treatment by using both microscopic observation and MTT assay. For microscopic observation cells were stained with trypan blue for at least 10 minute and observed under Differential Interference Contrast (DIC) setting of a fluorescence microscope (Nikon Eclipse TE2000-U, Japan). The MTT assay was performed as described previously^42. In brief, 20 μL MTT (5 mg/ml in PBS) was added into each wells and incubated for 2 hrs under normal growth condition to allow the viable cell to convert MTT to formazan. Then the media was discarded and formazan crystals were dissolved by adding 100 μL of DMSO and incubating 2 hrs with continuous shaking. The absorbance of the lysates were directly measured at 560 nm using a micro plate reader (Fluostar-omega, BMG Labtech). The absorbance values (which are proportional to the viable cell) are plotted as a function of time. The studies were repeated twice with 8 replicates each time.
The inventors studied the effect of Mn(III)-salen and Fe(III)-salen derivatives on the cell viability of cultured breast cancer cells MCF-7 in order to investigate the biochemical effects of the derivatives. The cells were incubated alone or with 20 μM of each of the metallo-salen derivatives separately (compounds 1-45) for varying time periods (0-96 hrs). The viable cells were quantified using MTT assay and the percent of cell survived (relative to the control untreated cells) were plotted against time (FIGS. 2A-2F).

**Q.** Which results are given for `CC(=O)[O-].[Mn+3].[O-]c1cc(O)ccc1C=NCCN=Cc1ccc(O)cc1[O-]` [compound 3, 4,4′-Dihydroxysalen Mn(III) acetate]?
**A.** effect on cell viability (in words): did not have any significant effect on cell viability; also recorded: not active; Summary of cell viability activities (active/inactive): N^b (3)

**Q.** What does the source list for `CC(=O)[O-].[Mn+3].[O-]c1cc(O)ccc1C=Nc1ccccc1N=Cc1ccc(O)cc1[O-]` [compound 10, 4,4′-Dihydroxysalphen Mn(III) acetate]?
**A.** effect on cell viability (in words): not active; Summary of cell viability activities (active/inactive): N (10)

**Q.** For `CC(=O)[O-].[Mn+3].[O-]c1ccc(O)cc1C=Nc1cc2ccccc2cc1N=Cc1cc(O)ccc1[O-]` [compound 18, 5,5′-Dihydroxysalnaphen Mn(III) acetate], which “effect on cell viability (in words)” value is on record?
**A.** Its value is “inactive”.

**Q.** What about the “Summary of cell viability activities (active/inactive)” value (from here on “Summary … (active/inactive)”) of the same molecule?
**A.** The value was “N (18)”.

**Q.** `[Cl-].[Fe+3].[O-]c1c(O)cccc1C=NCCN=Cc1cccc(O)c1[O-]` [compound 23, 3,3′-Dihydroxysalen Fe(III) chloride] was tested. Which “Summary … (active/inactive)” value did it give?
**A.** The value was “N (23)”.

**Q.** For `[Cl-].[Fe+3].[O-]c1cc(O)ccc1C=NCCN=Cc1ccc(O)cc1[O-]` [compound 24, 4,4′-Dihydroxysalen Fe(III) chloride], which “Summary … (active/inactive)” value is on record?
**A.** The value was “N (24)”.

**Q.** With `[Cl-].[Fe+3].[O-]c1ccc(O)cc1C=NCCN=Cc1cc(O)ccc1[O-]` [compound 25, 5,5′-Dihydroxysalen Fe(III) chloride] as the molecule, how does the “Summary … (active/inactive)” value read?
**A.** The value was “N (25)”.

**Q.** How did the “effect on cell viability (in words)” value turn out when `COc1cccc(C=NCCN=Cc2cccc(OC)c2[O-])c1[O-].[Cl-].[Fe+3]` [compound 26, 3,3′-Dimethoxysalen Fe(III) chloride] was run?
**A.** Its value is “did not show any significant effect on cell viability”.

**Q.** What about the “Summary … (active/inactive)” value of the same molecule?
**A.** The value was “N (26)”.

**Q.** How did the “effect on cell viability (in words)” value turn out when `[Cl-].[Fe+3].[O-]c1cc(O)ccc1C=Nc1ccccc1N=Cc1ccc(O)cc1[O-]` [compound 31, 4,4′-Dihydroxysalphen Fe(III) chloride] was run?
**A.** The value was “did not have any effects on cell viability”.

**Q.** And the “Summary … (active/inactive)” value?
**A.** Its value is “N (31)”.

**Q.** `[Cl-].[Fe+3].[O-]c1ccc(O)cc1C=Nc1ccccc1N=Cc1cc(O)ccc1[O-]` [compound 32, 5,5′-Dihydroxysalphen Fe(III) chloride] was tested. Which “effect on cell viability (in words)” value did it give?
**A.** The value was “did not have any effects on cell viability”.

**Q.** What about the “Summary … (active/inactive)” value of the same molecule?
**A.** Its value is “N (32)”.

**Q.** Which “effect on cell viability (in words)” value does the source give for `[Cl-].[Fe+3].[O-]c1cc(O)ccc1C=Nc1cc2ccccc2cc1N=Cc1ccc(O)cc1[O-]` [compound 38, 4,4′-Dihydroxysalnaphen Fe(III) chloride] here?
**A.** The value was “did not have any effects on cell viability”.

**Q.** What about the “Summary … (active/inactive)” value of the same molecule?
**A.** Its value is “N (38)”.

**Q.** How did the “effect on cell viability (in words)” value turn out when `[Cl-].[Fe+3].[O-]c1ccc(O)cc1C=Nc1cc2ccccc2cc1N=Cc1cc(O)ccc1[O-]` [compound 39, 5,5′-Dihydroxysalnaphen Fe(III) chloride] was run?
**A.** The value was “did not have any effects on cell viability”.

**Q.** And the “Summary … (active/inactive)” value?
**A.** Its value is “N (39)”.

**Q.** With `[Cl-].[Fe+3].[O-]c1ccccc1C=NCCCN=Cc1ccccc1[O-]` [compound 43, Bis(salicylidene)propanediamine Fe(III) chloride] as the molecule, how does the “effect on cell viability (in words)” value read?
**A.** The value was “almost no cell killing activity”.

**Q.** How did the “effect on cell viability (in words)” value turn out when `[Cl-].[Fe+3].[O-]c1ccccc1C=NCCCCN=Cc1ccccc1[O-]` [compound 44, Bis(salicylidene)butanediamine Fe(III) chloride] was run?
**A.** The value was “almost no cell killing activity”.

**Q.** Which “effect on cell viability (in words)” value does the source give for “Fe(III)-carboxysalphen] chloride [compound 45]” here?
**A.** Its value is “almost no cell killing activity”.
